Patent US11999758B2, “Inhibitors of the YAP/TAZ-TEAD interaction and their use in the treatment of cancer” (INVENTIVA, priority 2018, dated 2024)

Experiments:
[1] = target: T1, YAP-TEAD interaction (Homo sapiens, UniProt P28347); experiment: Cell-based TEAD-GAL4 transactivation assay (luciferase reporter); details: HEK293 cells transfected with TEAD1-Gal4, YAP mutant (S127A, S397A) and luciferase reporter, compounds 0.1 μM to 30 μM; for Emax: HEK293, 24 h, read-out: TEAD-GAL4 Transactivation activity Max Act; for IC50: 24 h
T1 construct: expressed in transfected cells; host or cells: HEK293 GripTite 293 MSR (Invitrogen R795-07)
Summary of the method: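 HEK293 cells transiently transfected with Gal4-DBD–full-length human TEAD1, full-length YAP S127A/S397A (YAP/TEAD ratio 10) and a 5×GAL4-RE TK-luciferase reporter. Six hours later, compounds added semi-log from 0.1 to 30 μM (DMSO 0.5% control) for 24 h. Luciferase read; IC50 from 3-parameter fit.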

[2] = tested on: Met5A cell line; experiment: Cell proliferation in YAP-independent cell line (EdU); assay type: cell-based; details: FIG. 1 (▪)
Method: (§1) The tumor cell growth inhibitory activity of the YAP-TEAD interaction inhibitors was evaluated in NCI-H-2052 mesothelioma cell line harboring a NF2 mutation. This cell line was selected based on its mutational status and the ability of a siRNA directed against YAP, TAZ or TEAD1-4 to inhibit cell proliferation. The nuclear localization of YAP at confluence was also taken into account. Based on these observations we were able to classify several “YAP dependent cells” where YAP is clearly nuclear and in which a cell growth inhibition is observed by using siRNA (NCI-H-2052, SKOV-3, ACHN, A549) and the “YAP independent cells” where YAP is preferentially located in the cytoplasm and in which no inhibition of cell growth is observed by using a siRNA (SW620, Met-5a). […] After one day growth in the starvation medium, cells were incubated with compounds. The starting concentration was 30 μM and serial dilutions in DMSO and medium were performed until 0.1 μM to achieve a final DMSO concentration of 0.5%. The cells were then allowed to grow for 3 days, and then, EdU (Invitrogen, Molecular Probe) was added in each well at a final concentration of 10 μM and the cells were returned to the incubator for an additional 24 h. The starvation medium was removed and 100 μl of PFA 4% containing Hoechst dye was adding in each well to fix the cells. Plates were then incubated at rt for 15 min, washed twice with PBS and the cells were permeabilized by adding 100 μl per well of triton-100 containing 0.3% BSA. After 20 min, cells were washed with PBS and EdU detection was performed according to the instructions of the manufacturer. Image acquisition was performed using the ImageXpress Micro and analyzed using the MetaXpress software (Molecular Device). Results were expressed as a percent of inhibition (%) of the cell proliferation values obtained with 0.5% DMSO treatment alone. The cellular response was determined by fitting the concentration response curves using a 3 parameter curve fit equation and determining the concentration that inhibited cell growth between 50% and 100%.

[3] = tested on: NCI-H2052 mesothelioma cell; experiment: Inhibition of malignant mesothelioma tumor cell growth (EdU proliferation); assay type: cell-based; details: NF2 mutated cell line; FIG. 1 (x)
Method: as §1

T1 sequence (P28347 whole entry, the tested form may be a part): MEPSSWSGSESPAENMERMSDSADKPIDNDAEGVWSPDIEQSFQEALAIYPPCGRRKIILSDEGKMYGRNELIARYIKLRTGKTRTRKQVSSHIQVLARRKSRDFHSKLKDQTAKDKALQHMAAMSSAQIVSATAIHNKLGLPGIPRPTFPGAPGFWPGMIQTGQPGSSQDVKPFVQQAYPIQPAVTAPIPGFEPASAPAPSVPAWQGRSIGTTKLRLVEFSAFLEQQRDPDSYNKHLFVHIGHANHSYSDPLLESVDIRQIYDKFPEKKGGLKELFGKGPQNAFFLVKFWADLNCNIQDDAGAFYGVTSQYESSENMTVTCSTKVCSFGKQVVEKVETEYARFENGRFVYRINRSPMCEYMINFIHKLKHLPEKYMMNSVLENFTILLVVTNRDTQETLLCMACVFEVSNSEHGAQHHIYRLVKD

| Compound | Emax [1] [%] | IC50 [1] [nM] | effect in the Met5A cell line [2] | melting point [°C] | NCI-H2052 mesothelioma cell proliferation [3] |
| --- | --- | --- | --- | --- | --- |
| CSc1nc2ncnc(N(C)/N=C/c3ccc4c(c3)COB4O)c2s1 [Ex75, N-[(E)-(1-hydroxy-3H-2,1-benzoxaborol-5-yl)methyleneamino]-N-methyl-2-methylsulfanyl-thiazolo[4,5-d]pyrimidin-7-amine] | 94 | 900 | without showing any effect | 262 to 286 | inhibited |
| COc1cc(/C=N/N(CC(C)C)c2ncnc3ccsc23)ccc1B(O)O [Ex 20, [4-[(E)-[isobutyl(thieno[3,2-d]pyrimidin-4-yl)hydrazono]methyl]-2-methoxy-phenyl] boronic acid] | 87 | 1340 | without showing any effect |  | inhibited |
| CCN(/N=C/c1ccc2c(c1)COB2O)c1ncnc2c(C)csc12 [Ex 42, N-ethyl-N-[(E)-(1-hydroxy-3H-2,1-benzoxaborol-5-yl)methyleneamino]-7-methyl-thieno[3,2-d]pyrimidin-4-amine] | 81 | 260 | without showing any effect |  | inhibited |
